For experiment [1], the system named is PAH patients. Kind of experiment: Clinical study: change from baseline to week 24 in clinical parameters (PVR, MPAP, PAC, 6MWD, NTproBNP). The experiment is classed as in vivo, human. Further details: MPAP Change / 6MWD change / NTproBNP change: unit not given here. The method, then: (§1) A clinical study was undertaken to examine the effect of Seralutinib on pulmonary arterial blood vessel volume distribution in PAH patients. Seralutinib was administered twice daily (BID) for 24 weeks, via dry powder inhalation, to PAH patients (WHO Group I, functional class II or III). Thin-section, volumetric non-contrast chest CTs were obtained (at baseline and week 24, minimum of 64 slices), followed by automated pulmonary vascular segmentation to evaluate the reverse remodeling potential of seralutinib.
(§2) Baseline and Week 24 CTs were obtained in 19 subjects (7 receiving seralutinib, 12 receiving placebo), mean age 49±12 years, 18 were female, as presented in Tables 1 and 2. All subjects were receiving two or three approved PAH-specific medications.
(§3) Case study 2 was of a person with WHO functional class II idiopathic PAH+severe rheumatoid arthritis receiving approved PAH Triple Therapy (ERA+PDE-5i+PRA).

The subject of experiment [2] is PAH patients. Kind of experiment: Clinical study: functional respiratory imaging (chest CT, automated pulmonary vascular segmentation) of pulmonary arterial blood vessel volume distribution. The class given is in vivo, human. The method, then:
as §1
From the scans, paired inspiratory-expiratory high-resolution non-contrast computer tomography studies were performed and the lobar tissue, airways and vasculature were reconstructed. Vasculature volumes are provided as a total blood volume (BV), and as BVX values, which divide the pulmonary blood volume depending on the size vessel in which the blood is contained, wherein:
Blood vessel volumes (BVV) of pulmonary arteries with a CSA<5 mm^2 (BV5A) and >10 mm^2 (BV10A) were calculated, and the BV5A to BV10A ratio (BV510ARATIO) was used to express relative redistribution of pulmonary arterial blood vessel volume. Linear regression was used to model the treatment effect.
as §2, §3

Setting [3] is: individual PAH patient, baseline to week 24, BID dry powder inhalation.
Setting [4] is: Case Study 2, baseline to week 24, lung images.
Where [5] appears, read: treatment effect vs placebo, week 24, linear regression.

The source of these data is patent US20260237072A1, “FUNCTIONAL RESPIRATORY IMAGING ANALYSIS OF SERALUTINIB FOR THE TREATMENT OF PULMONARY ARTERIAL HYPERTENSION (PAH)” (GB002, INC., priority 2023, published 2026).

Values joined by “and” are separate entries in the source; they are usually repeats but may differ in a detail not shown here. Identical values can stand only once.

In the case of `COc1ccc(-c2cncc(N[C@@H](C)c3cccc(NC(=O)c4cncc(C)c4)c3)n2)cc1OC` [Seralutinib, N-{3-[(1S)-1-{[6-(3,4-dimethoxyphenyl)pyrazin-2-yl]amino}ethyl]phenyl}-5-methylpyridine-3-carboxamide], the “PVR coincident with arterial volume shifts” value in experiment [1] (Case Study 2, baseline to week 24) is on record as “Improvement”. In experiment [1] (Case Study 2, week 24), this compound came in with a 6MWD change of −48 and an NTproBNP change of 41. In experiment [1] (Case Study 2, week 24, PVR baseline 408), this compound displayed a PVR Change of −159. For the same compound, in experiment [1] (setting [3]), the “MPAP Change” value is −4 and −3 (2×) and −8 and 3 and −2; the “PAC Change (pulmonary arterial compliance)” value is 0.65 and 0.24 and 0.85 and 0.31 and 0.11 and 0.32; the “PVR Change” value is −159 and −11 and −52 and −235 and −139 and −171. In experiment [2] (setting [4]), the BV5A/BV10A ratio result was “Increase”, the “Decrease in BV10APRA” value worked out at 8% and the “Increase in BV5APRA” value was 6%. In addition, in experiment [2] (Case Study 2, week 24), the “BV5A PRA (%)*” value is on record as “+5.6%”, the “BV10A PRA (%)*” value is on record as −7.7% and the “BV510A RATIO” value was “+2.5”. Further, in experiment [2] (subjects with PAH on dual or triple PAH therapies, seralutinib added), the “redistribution of pulmonary arterial blood vessel volume to more distal vessels” value is recorded as “significant redistribution”. In experiment [2] (setting [5]), the “BV5APRA regression model effect estimate” value is reported as 2.625, the “BV5PR regression model effect estimate” value was 1.835, the “BV10APRA regression model effect estimate” value is −2.711 and the “BV10PR regression model effect estimate” value is listed as −2.180. Further, the “BV510RATIO regression model effect estimate” value in experiment [2] (setting [5]) is recorded as 0.843. In experiment [2] (treatment effect vs placebo, week 24, linear regression, 7 seralutinib, 12 placebo), the “BV510ARATIO regression model effect estimate” value is recorded as 0.845. Besides, the “least squares mean difference value of the BV510ARatio” value in experiment [2] (vs placebo, 95% CI 0.105, 1.585, p-value 0.028) turned out to be 0.845. For the same compound, the “BV510A Ratio in the seralutinib group compared to placebo” value in experiment [2] (week 24, p=0.028) is on record as “significantly higher”.
